Measurements from patent US20020151562A1, “Compositions and methods for treating allergic fungal sinusitis” (priority 2001, published 2002).
Entries after “also recorded” stand apart in the source; their conditions may differ.

Test system: patients diagnosed to have allergic fungal sinusitis resistant to treatment
Assay: Nasal Spray Study: patient questionnaire after two months of intranasal treatment
Conditions: for effectiveness in treating allergic fungal sinusitis, allergic rhinitis and asthma (symptom relief): extremely low dose, patients resistant to standard treatments including corticosteroids; for side effects: low dose, patients tested
Text: Fifty-four patients were selected on the basis of their failure to respond to intranasal corticosteroids for the treatment of acute and chronic sinusitis and allergic rhinitis and positive skin tests to fungi. […] The age range was 6 years to 71 years.
Each patient was instructed to use two sprays in each nostril twice daily, AM and PM for a total of four sprays per nostril per day. Treatment lasted for two months.
Therefore, the status of the patients' symptoms were documented over a period of two months.
The following statements were posed to the patients after treatment for two months with regard to their symptoms before and after the course of treatment.

[1] = intranasal, listed as compound of formula I

CC(C)(O)c1ccccc1CC[C@@H](SCC1(CC(=O)[O-])CC1)c1cccc(/C=C/c2ccc3ccc(Cl)cc3n2)c1.[Na+] [sodium salt of montelukast, montelukast]
Total Number of Patients Post Treatment Reporting Improvement (sinus pain, post nasal drip and nasal congestion worse in cold weather) (52 tested, 21 reporting prior to treatment, intranasal, two months): 14 patients
Total Number of Patients Post Treatment that Reported Improvement (worry that sinus pain, post nasal drip and nasal congestion affect health and make it difficult to sleep) (52 tested, 31 reporting prior to treatment, intranasal, two months): 30 patients
Total Number of Patients Reporting Improvement (sinus and nasal congestion worse around tobacco smoke, fumes or strong odors) (52 tested, 42 reporting prior to treatment, intranasal, two months): 24 patients
Total Number of Patients Post Treatment Reporting Improvement (sleeping trouble due to coughing and choking attacks, post nasal drip and sinus pain) (52 treated, 29 reporting prior to treatment, intranasal, two months): 28 patients
Total Number of Patients Post Treatment that Reported Improvement (allergy medicine does not control nasal congestion, sinusitis, post nasal drip and ear congestion) (52 treated, 42 reporting prior to treatment, intranasal, two months): 42 patients
Total Number of Patients Reporting Improvement (respiratory infection goes into sinuses, ears and nose) (52 treated, 44 reporting prior to treatment, intranasal, two months): 27 patients
Total Number of Patients Post Treatment Reporting Improvement (dust, pollen and pets cause nasal congestion, sinus pain, ear pain and dizziness) (52 treated, 45 reporting prior to treatment, intranasal, two months): 37 patients
patients with positive results and alleviation of major symptoms (at the end of two months, of the fifty-two patients, intranasal saline spray): forty-two
effectiveness in treating allergic fungal sinusitis, allergic rhinitis and asthma (symptom relief) (intranasal): effective not only in relieving nasal congestions, sinus pain, post nasal drip, throat pain and serous otitis media, but it also helped their asthma; also recorded: effective
effectiveness in treating allergic fungal sinusitis, allergic rhinitis and asthma (symptom relief) [1]: improvement in these non-responders was noticed
side effects (intranasal): no significant side effects
side effects [1]: without harmful effects
time to some recovery after application (nasal spray, low dosages): within one day
Total Number of Patients Reporting Improvement of Breathing Post-Treatment (statement: trouble breathing or cough when walking or doing simple chores, 52 treated, 34 with trouble breathing before treatment, intranasal, two months): 24 patients
